For this test, the system named is Mycobacterium tuberculosis. In words: Antibacterial activity against INH-resistant Mycobacterium tuberculosis. The class given is functional.

Values after ≈ are worked out from the molar mass of the structure shown.

The term MIC denotes the lowest concentration that inhibits growth of the organism. Lower therefore signals greater potency. `NNC(=O)c1ccncc1` [ISONIAZID]: the MIC stood at 90.9 µM (≈ 12.5 µg/mL).

Compound `COc1ccc(N/C(S)=N\c2ccc(/C(C)=N\NC(=O)c3ccncc3)cc2)cc1` registered an MIC of 1.85 µM (≈ 0.776 µg/mL). For `C/C(=N/NC(=O)c1ccncc1)c1ccc(N/C(S)=N/c2ccc(C)cc2)cc1`, the MIC was found to be 3.86 µM (≈ 1.56 µg/mL). This MIC lies about 2.1-fold higher than the previous one. Turning to `C/C(=N/NC(=O)c1ccncc1)c1ccc(N/C(S)=N/c2ccc(Br)cc2)cc1`, inhibition of growth (MIC) required 1.66 µM (≈ 0.778 µg/mL). With `CCOc1ccc(N/C(S)=N\c2ccc(/C(C)=N\NC(=O)c3ccncc3)cc2)cc1`, the MIC was found to be 1.79 µM (≈ 0.776 µg/mL).

In turn, `C/C(=N/NC(=O)c1ccncc1)c1ccc(N/C(S)=N/c2ccc(F)cc2)cc1` returned an MIC of 0.49 µM (≈ 0.2 µg/mL). The value for `C/C(=N/NC(=O)c1ccncc1)c1ccc(N/C(S)=N/c2ccccc2)cc1` was 4 µM (≈ 1.56 µg/mL).

For the origin of these results see ChEMBL document CHEMBL1149454, “Synthesis and in vitro antitubercular activity of some 1-[(4-sub)phenyl]-3-(4-{1-[(pyridine-4-carbonyl)hydrazono]ethyl}phenyl)thiourea” (Bioorg Med Chem Lett, 2006).
